Reference: the supplement of paper PMC10307832

Experiments:
Assay in all cases: relative viability (nuclei count vs DMSO), 5 days (fraction); higher = more cells survive
[1] = test system: NCI-H522
Procedure, shortened: (§1)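 Lung cancer cell lines were pin-tool dosed in 1536-well plates on the day after seeding, with either a lone drug or a fixed anchor-drug dose plus five library-drug doses (not always all listed) in √10 steps. Nuclei were counted on 4× images after 5 days. Relative viability is the ratio of treated-well to vehicle-well nuclei counts, with each value a median of duplicate plates.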

[2] = test system: NCI-H1734
Procedure, shortened: as §1

[3] = test system: COR-L23
Procedure, shortened: as §1

[4] = test system: LU99A
Procedure, shortened: as §1

[5] = test system: NCI-H1648
Procedure, shortened: as §1

[6] = test system: NCI-H1944
Procedure, shortened: as §1

[7] = test system: BEN
Procedure, shortened: as §1

[8] = test system: COR-L 105
Procedure, shortened: as §1

[9] = test system: 201T
Procedure, shortened: as §1

[10] = test system: HARA
Procedure, shortened: as §1

[11] = test system: NCI-H2342
Procedure, shortened: as §1

[12] = test system: EKVX
Procedure, shortened: as §1

[13] = test system: SK-LU-1
Procedure, shortened: as §1

[14] = test system: NCI-H1993
Procedure, shortened: as §1

[15] = test system: HCC-366
Procedure, shortened: as §1

[16] = test system: LXF-289
Procedure, shortened: as §1

[17] = test system: NCI-H596
Procedure, shortened: as §1

[18] = test system: HCC-78
Procedure, shortened: as §1

[19] = test system: NCI-H1975
Procedure, shortened: as §1

[20] = test system: NCI-H1650
Procedure, shortened: as §1

[21] = test system: NCI-H3122
Procedure, shortened: as §1

[22] = test system: HCC-827
Procedure, shortened: as §1

[23] = test system: HCC-15
Procedure, shortened: as §1

[24] = test system: NCI-H1755
Procedure, shortened: as §1

CCCCCCCCCCCC1=C(O)C(=O)C=C(O)C1=O [Embelin] + CC(=O)Nc1cccc(-n2c(=O)n(C3CC3)c(=O)c3c(Nc4ccc(I)cc4F)n(C)c(=O)c(C)c32)c1 [Trametinib] (partner 0.02 µM)
relative viability ([1]; first compound 0.08 µM): 0.637
relative viability ([1]; first compound 0.8 µM): 0.817
relative viability ([1]; first compound 2.53 µM): 0.719
relative viability ([1]; first compound 8 µM): 0.765
relative viability ([2]; first compound 0.08 µM): 0.686
relative viability ([2]; first compound 0.8 µM): 0.789
relative viability ([2]; first compound 2.53 µM): 0.777
relative viability ([2]; first compound 8 µM): 0.689
relative viability ([3]; first compound 0.08 µM): 0.562
relative viability ([3]; first compound 0.8 µM): 0.689
relative viability ([3]; first compound 2.53 µM): 0.653
relative viability ([3]; first compound 8 µM): 0.608
relative viability ([4]; first compound 0.08 µM): 0.631
relative viability ([4]; first compound 0.8 µM): 0.596
relative viability ([4]; first compound 2.53 µM): 0.561
relative viability ([4]; first compound 8 µM): 0.526
relative viability ([5]; first compound 0.08 µM): 0.53
relative viability ([5]; first compound 0.8 µM): 0.572
relative viability ([5]; first compound 2.53 µM): 0.524
relative viability ([5]; first compound 8 µM): 0.596
relative viability ([6]; first compound 0.08 µM): 0.404
relative viability ([6]; first compound 0.8 µM): 0.436
relative viability ([6]; first compound 2.53 µM): 0.446
relative viability ([6]; first compound 8 µM): 0.428
relative viability ([7]; first compound 0.08 µM): 1.11
relative viability ([7]; first compound 0.8 µM): 1.16
relative viability ([7]; first compound 2.53 µM): 0.966
relative viability ([7]; first compound 8 µM): 0.865
relative viability ([8]; first compound 0.08 µM): 0.462
relative viability ([8]; first compound 0.8 µM): 0.458
relative viability ([8]; first compound 2.53 µM): 0.464
relative viability ([8]; first compound 8 µM): 0.445
relative viability ([9]; first compound 0.08 µM): 0.698
relative viability ([9]; first compound 0.8 µM): 0.726
relative viability ([9]; first compound 2.53 µM): 0.731
relative viability ([9]; first compound 8 µM): 0.731
relative viability ([10]; first compound 0.08 µM): 0.785
relative viability ([10]; first compound 0.8 µM): 1.05
relative viability ([10]; first compound 2.53 µM): 0.637
relative viability ([10]; first compound 8 µM): 0.536
relative viability ([11]; first compound 0.08 µM): 0.95
relative viability ([11]; first compound 0.8 µM): 0.806
relative viability ([11]; first compound 2.53 µM): 0.866
relative viability ([11]; first compound 8 µM): 0.757
relative viability ([12]; first compound 0.08 µM): 0.328
relative viability ([12]; first compound 0.8 µM): 0.472
relative viability ([12]; first compound 2.53 µM): 0.275
relative viability ([12]; first compound 8 µM): 0.429
relative viability ([13]; first compound 0.08 µM): 0.505
relative viability ([13]; first compound 0.8 µM): 0.542
relative viability ([13]; first compound 2.53 µM): 0.691
relative viability ([13]; first compound 8 µM): 0.39
relative viability ([14]; first compound 0.08 µM): 0.513
relative viability ([14]; first compound 0.8 µM): 0.512
relative viability ([14]; first compound 2.53 µM): 0.584
relative viability ([14]; first compound 8 µM): 0.498
relative viability ([15]; first compound 0.08 µM): 0.385
relative viability ([15]; first compound 0.8 µM): 0.431
relative viability ([15]; first compound 2.53 µM): 0.446
relative viability ([15]; first compound 8 µM): 0.326
relative viability ([16]; first compound 0.08 µM): 0.715
relative viability ([16]; first compound 0.8 µM): 0.737
relative viability ([16]; first compound 2.53 µM): 0.722
relative viability ([16]; first compound 8 µM): 0.676
relative viability ([17]; first compound 0.08 µM): 0.832
relative viability ([17]; first compound 0.8 µM): 0.796
relative viability ([17]; first compound 2.53 µM): 0.795
relative viability ([17]; first compound 8 µM): 0.748
relative viability ([18]; first compound 0.08 µM): 0.834
relative viability ([18]; first compound 0.8 µM): 0.831
relative viability ([18]; first compound 2.53 µM): 0.752
relative viability ([18]; first compound 8 µM): 0.696
relative viability ([19]; first compound 0.08 µM): 0.38
relative viability ([19]; first compound 0.8 µM): 0.379
relative viability ([19]; first compound 2.53 µM): 0.376
relative viability ([19]; first compound 8 µM): 0.369
relative viability ([20]; first compound 0.08 µM): 0.713
relative viability ([20]; first compound 0.8 µM): 0.703
relative viability ([20]; first compound 2.53 µM): 0.675
relative viability ([20]; first compound 8 µM): 0.703
relative viability ([21]; first compound 0.08 µM): 0.251
relative viability ([21]; first compound 0.8 µM): 0.253
relative viability ([21]; first compound 2.53 µM): 0.238
relative viability ([21]; first compound 8 µM): 0.263
relative viability ([22]; first compound 0.08 µM): 0.535
relative viability ([22]; first compound 0.8 µM): 0.588
relative viability ([22]; first compound 2.53 µM): 0.506
relative viability ([22]; first compound 8 µM): 0.487
relative viability ([23]; first compound 0.08 µM): 0.366
relative viability ([23]; first compound 0.8 µM): 0.435
relative viability ([23]; first compound 2.53 µM): 0.345
relative viability ([23]; first compound 8 µM): 0.383
relative viability ([24]; first compound 0.08 µM): 0.816
relative viability ([24]; first compound 0.8 µM): 0.75
relative viability ([24]; first compound 2.53 µM): 0.841
relative viability ([24]; first compound 8 µM): 0.723

CCCCCCCCCCCC1=C(O)C(=O)C=C(O)C1=O [Embelin] + Nc1nc2[nH]cc(CCc3ccc(C(=O)N[C@@H](CCC(=O)O)C(=O)O)cc3)c2c(=O)[nH]1 [Pemetrexed] (partner 0.2 µM)
relative viability ([1]; first compound 0.08 µM): 0.901
relative viability ([1]; first compound 0.8 µM): 1.06
relative viability ([1]; first compound 2.53 µM): 0.957
relative viability ([1]; first compound 8 µM): 0.837
relative viability ([2]; first compound 0.08 µM): 0.434
relative viability ([2]; first compound 0.8 µM): 0.447
relative viability ([2]; first compound 2.53 µM): 0.414
relative viability ([2]; first compound 8 µM): 0.401
relative viability ([3]; first compound 0.08 µM): 0.196
relative viability ([3]; first compound 0.8 µM): 0.196
relative viability ([3]; first compound 2.53 µM): 0.201
relative viability ([3]; first compound 8 µM): 0.191
relative viability ([4]; first compound 0.08 µM): 0.182
relative viability ([4]; first compound 0.8 µM): 0.178
relative viability ([4]; first compound 2.53 µM): 0.15
relative viability ([4]; first compound 8 µM): 0.192
relative viability ([5]; first compound 0.08 µM): 0.682
relative viability ([5]; first compound 0.8 µM): 0.675
relative viability ([5]; first compound 2.53 µM): 0.776
relative viability ([5]; first compound 8 µM): 0.662
relative viability ([6]; first compound 0.08 µM): 0.545
relative viability ([6]; first compound 0.8 µM): 0.754
relative viability ([6]; first compound 2.53 µM): 0.578
relative viability ([6]; first compound 8 µM): 0.643
relative viability ([7]; first compound 0.08 µM): 0.763
relative viability ([7]; first compound 0.8 µM): 0.823
relative viability ([7]; first compound 2.53 µM): 1.03
relative viability ([7]; first compound 8 µM): 0.731
relative viability ([8]; first compound 0.08 µM): 1.15
relative viability ([8]; first compound 0.8 µM): 1.21
relative viability ([8]; first compound 2.53 µM): 1
relative viability ([8]; first compound 8 µM): 1.08
relative viability ([9]; first compound 0.08 µM): 0.347
relative viability ([9]; first compound 0.8 µM): 0.326
relative viability ([9]; first compound 2.53 µM): 0.333
relative viability ([9]; first compound 8 µM): 0.299
relative viability ([10]; first compound 0.08 µM): 0.292
relative viability ([10]; first compound 0.8 µM): 0.279
relative viability ([10]; first compound 2.53 µM): 0.256
relative viability ([10]; first compound 8 µM): 0.208
relative viability ([11]; first compound 0.08 µM): 0.738
relative viability ([11]; first compound 0.8 µM): 0.806
relative viability ([11]; first compound 2.53 µM): 0.859
relative viability ([11]; first compound 8 µM): 0.814
relative viability ([12]; first compound 0.08 µM): 0.406
relative viability ([12]; first compound 0.8 µM): 0.465
relative viability ([12]; first compound 2.53 µM): 0.368
relative viability ([12]; first compound 8 µM): 0.407
relative viability ([13]; first compound 0.08 µM): 0.975
relative viability ([13]; first compound 0.8 µM): 1.13
relative viability ([13]; first compound 2.53 µM): 0.962
relative viability ([13]; first compound 8 µM): 0.988
relative viability ([14]; first compound 0.08 µM): 0.609
relative viability ([14]; first compound 0.8 µM): 0.568
relative viability ([14]; first compound 2.53 µM): 0.581
relative viability ([14]; first compound 8 µM): 0.554
relative viability ([15]; first compound 0.08 µM): 0.161
relative viability ([15]; first compound 0.8 µM): 0.149
relative viability ([15]; first compound 2.53 µM): 0.151
relative viability ([15]; first compound 8 µM): 0.236
relative viability ([16]; first compound 0.08 µM): 0.863
relative viability ([16]; first compound 0.8 µM): 0.915
relative viability ([16]; first compound 2.53 µM): 0.866
relative viability ([16]; first compound 8 µM): 1.08
relative viability ([17]; first compound 0.08 µM): 0.478
relative viability ([17]; first compound 0.8 µM): 0.507
relative viability ([17]; first compound 2.53 µM): 0.53
relative viability ([17]; first compound 8 µM): 0.445
relative viability ([18]; first compound 0.08 µM): 0.924
relative viability ([18]; first compound 0.8 µM): 0.895
relative viability ([18]; first compound 2.53 µM): 0.982
relative viability ([18]; first compound 8 µM): 0.949
relative viability ([19]; first compound 0.08 µM): 0.313
relative viability ([19]; first compound 0.8 µM): 0.286
relative viability ([19]; first compound 2.53 µM): 0.285
relative viability ([19]; first compound 8 µM): 0.311
relative viability ([20]; first compound 0.08 µM): 0.437
relative viability ([20]; first compound 0.8 µM): 0.369
relative viability ([20]; first compound 2.53 µM): 0.494
relative viability ([20]; first compound 8 µM): 0.358
relative viability ([21]; first compound 0.08 µM): 0.193
relative viability ([21]; first compound 0.8 µM): 0.202
relative viability ([21]; first compound 2.53 µM): 0.202
relative viability ([21]; first compound 8 µM): 0.2
relative viability ([22]; first compound 0.08 µM): 0.26
relative viability ([22]; first compound 0.8 µM): 0.284
relative viability ([22]; first compound 2.53 µM): 0.285
relative viability ([22]; first compound 8 µM): 0.259
relative viability ([23]; first compound 0.08 µM): 0.226
relative viability ([23]; first compound 0.8 µM): 0.24
relative viability ([23]; first compound 2.53 µM): 0.233
relative viability ([23]; first compound 8 µM): 0.207
relative viability ([24]; first compound 0.08 µM): 0.448
relative viability ([24]; first compound 0.8 µM): 0.468
relative viability ([24]; first compound 2.53 µM): 0.433
relative viability ([24]; first compound 8 µM): 0.46
